Patent US20240366813A1, “PEPTIDE-UREA DERIVATIVE, PHARMACEUTICAL COMPOSITION CONTAINING SAME AND APPLICATION THEREOF” (Bivision Pharmaceuticals, Inc., priority 0001, published 2024)

Columns and labels:
[1] = tested on: PSMA-positive (22RV1) tumor; assay: Specificity test, PET/CT in PSMA-positive (22RV1) tumor-bearing mice with and without PMPA; format: in vivo; details: ^68Ga-E3 co-injected with PMPA (2 mg/Kg), FIG. 4
Protocol: The ^68Ga-E3 radiolabeled compound was injected into the tail vein of PSMA-positive (22RV1) tumor-bearing mice (Jiangsu Huajing Molecular Imaging and Drug Research Institute Co., Ltd.) (about 7.4 MBq/mouse, specific activity: 22423.82 KBq/μg) ([…]). After administration, PET/CT was used for 1 h dynamic scanning, medium resolution whole body CT, and 10 min static scanning at 2 h and 3 h. It can be clearly seen from FIG. 3 that the drug is rapidly distributed into the animal body after administration, and the drug is rapidly metabolized by the kidneys and excreted from the body over time.
The next day, the mixture of ^68Ga-E3 and PSMA standard PMPA (2 mg/Kg) was injected into the tail vein of PSMA-positive tumor-bearing mice (about 7.4 MBq/mouse, specific activity: 22423.82 KBq/μg) (50 uCi). After administration, PET/CT was used for 1 h dynamic scanning, medium resolution whole body CT, and 10 min static scanning at 2 h and 3 h. The results are depicted in detailed in FIG. 4.
PMPA is a specific inhibitor of PSMA. When PMPA is administered together with ^68Ga-E3, ^68Ga-E3 and PMPA are rapidly distributed to various organs in the animal body. However, PMPA occupies the PSMA target on the tumor, thus preventing the binding of ^68Ga-E3 to PSMA on the tumor.

PSMA protein = PSMA protein (Homo sapiens (Human), UniProt Q04609); assay: In vitro binding test of compound and PSMA protein (Biacore); details: Biacore 8K, 15° C., 1:1 binding model, KD in M
Protocol: A Biacore 8K (Cytiva) instrument was used to determine the binding affinity of disclosed compounds to the PSMA protein (Sinobiological). The PSMA protein was captured on SA chips. Before immobilizing the disclosed compounds (flow path 1 and 2, flow rate 10 μL/min), the PSMA protein was immobilized on flow path 2 by using flow buffer (10 μg/ml, flow rate 5 μL/min, injection time 600 s), and 1M NaCl was injected three times consecutively into 50 mM NaOH to condition the sensor surface. After each disclosed compounds injection, isopropanol in 1M NaCl and 50 mM NaOH was used for additional washing (flow path 1, 2, flow rate 10 μL/min, injection time 60 s).
All compounds were dissolved in 100% DMSO and diluted to 10 mM, and then diluted in test buffer (PBS, pH 7.4, 1 mM TCEP ([…]), 0.05% P20, 2% dimethyl sulfoxide) at an appropriate highest concentration. Analytes were run using the following conditions: 15° C. analysis temperature, analysis steps=all set to LMW kinetics; cycle type=single cycle (90 s contact time, 1800 s separation time, 30 ul/min flow rate, channels 1, 2); channel detection=2-1). Data were evaluated using Biacore Insight evaluation software, and data were fit to a 1:1 binding model.
Biacore results are shown in Table 12: pKD=−Log KD, where KD is the binding affinity of the compounds to PSMA protein measured by Biacore. KD is expressed by KD (M)=Kd (1/s)/Ka (1/Ms).

22rv1 xenograft tumor = assay: Pharmacodynamic study in 22rv1 mouse xenograft tumor model (effect example 11); format: in vivo, mice; details: for TGITV (relative tumor inhibition rate): Day 19; for Tumor volume, Administration in groups Day 19: mean ± standard error
plasma protein = assay: Determination of plasma protein binding (PPB); format: in vitro ADME; details: ^177Lu-labeled, 37° C., 10 min, ultrafiltration, FIG. 6
Protocol: Three EP tubes were taken, and 0.2 mL of plasma and 50 μL of ^177Lu-labeled compound were added to each tube. The mixture was incubated in a thermostat at 37° C. for 10 min, and then taken out and added to ultrafiltration tubes, respectively. The ultrafiltration tubes were centrifuged at 13,000 rpm for 45 min. 50 μL of normal saline was then added, and the mixture was centrifuged for another 15 minutes. The radioactive counts per minute of each tube casing and filtrate were then measured. PPB was calculated, and the mean of 3 tubes was recorded. PPB=[(supernatant counts-background counts)]/(subnatant counts+supernatant counts−2*background counts)]*100.

LNCAP cells = assay: Cell binding test on LNCAP cells; format: cell-based; details: ^177Lu-labeled, on ice 2 hours, FIG. 1
Protocol: LNCAP cells in the logarithmic growth phase (Obio Technology (Shanghai) Corp., Ltd.) were made into a cell suspension. The cell suspension was adjusted to a cell density of 2×10^5/ml and inoculated 1 mL into a 24-well cell culture plate. Cells were incubated in an incubator at 37° C. for 48 hours. Three hours before the test, the medium was replaced with serum-free RPMI1640 medium (NEWZERUM), the cell culture medium was aspirated, and the cells were washed once with PBS. Serum-free RPMI1640 medium was used to prepare ^177Lu-E series compounds at concentrations of 32, 16, 8, 4, 1, 0.5, 0.1, 0.02, 0.01, 0.002 uCi/mL. The original medium was discarded, and then 1 mL of the prepared solution containing ^177Lu-E series compounds was added to each well. The plate was placed on ice for 2 hours, and then the cells were washed three times with 0.5 mL of ice-cold PBS. The washing solution was aspirated, and the cells were lysed with 0.5 mL of 1M NaOH and washed twice with 0.5 mL of PBS, and the sodium hydroxide (0.5 mL) and PBS (0.5 mL×2) solutions were collected. The uptake counts were determined.

[2] = Determination of Log P (n-octanol/water); format: physicochemical; details: room temperature, FIG. 5
Protocol: Three EP tubes were taken, and 0.5 mL of saturated n-octanol and 480 μL of ultrapure water were added into each EP tube. 20 μL (about 1 MBq) solution of E series compounds and reference compound were then added respectively. The mixture was shaken evenly and then centrifuged at room temperature (2000 r/min, 5 min, centrifugal radius: 10 cm). 100 μL was taken from the lipid layer and aqueous layer of each tube, and the radioactive counts per minute of the two phases were measured. The Log P value was calculated and the results were averaged.

[3] = 300 μCi of ^177Lu-labeled test sample
[4] = 600 μCi of ^177Lu-labeled test sample

Sequence of PSMA protein (Q04609 whole entry): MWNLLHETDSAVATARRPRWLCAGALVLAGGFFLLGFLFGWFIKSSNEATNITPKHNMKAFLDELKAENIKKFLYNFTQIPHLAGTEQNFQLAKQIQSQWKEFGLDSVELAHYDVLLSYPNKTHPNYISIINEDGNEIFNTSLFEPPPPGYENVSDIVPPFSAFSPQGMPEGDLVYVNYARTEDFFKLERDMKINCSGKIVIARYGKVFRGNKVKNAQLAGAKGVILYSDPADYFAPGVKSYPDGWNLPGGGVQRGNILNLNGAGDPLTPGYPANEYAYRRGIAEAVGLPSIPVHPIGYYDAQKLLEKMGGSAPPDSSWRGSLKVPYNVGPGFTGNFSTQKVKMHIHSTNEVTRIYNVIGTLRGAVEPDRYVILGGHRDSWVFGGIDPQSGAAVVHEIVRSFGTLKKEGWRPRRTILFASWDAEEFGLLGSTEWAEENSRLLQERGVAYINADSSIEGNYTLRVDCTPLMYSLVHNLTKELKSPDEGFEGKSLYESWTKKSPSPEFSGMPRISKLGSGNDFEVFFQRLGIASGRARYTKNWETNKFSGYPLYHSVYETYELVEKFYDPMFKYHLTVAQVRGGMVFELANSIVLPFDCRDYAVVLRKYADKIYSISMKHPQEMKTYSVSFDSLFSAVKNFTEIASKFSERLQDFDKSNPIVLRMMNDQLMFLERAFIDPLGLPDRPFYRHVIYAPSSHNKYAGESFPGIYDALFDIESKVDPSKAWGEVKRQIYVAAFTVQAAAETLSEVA

SMILES	specificity against PSMA [1]	pkD (pKD=−Log KD, binding affinity to PSMA protein) (PSMA protein)	TGITV (relative tumor inhibition rate) (22rv1 xenograft tumor; [3])	Tumor volume, Administration in groups Day 19 (22rv1 xenograft tumor; [3])	TGITV (relative tumor inhibition rate) (22rv1 xenograft tumor; [4])	Tumor volume, Administration in groups Day 19 (22rv1 xenograft tumor; [4])	PPB binding rate (plasma protein)	cell binding ability (LNCAP cells)	lipophilicity (Log P) compared with the reference compound PSMA-617 [2]
O=C(O)CC[C@H](NC(=O)NC(CCCCNC(=O)[C@H](Cc1ccc2ccccc2c1)NC(=O)c1ccc2c(c1)CCN(C(=O)CN1CCN(CC(=O)O)CCN(CC(=O)O)CCN(CC(=O)O)CC1)C2)C(=O)O)C(=O)O (stereo partly shown) [Compound E3]	high specificity	9.26	71.00%	590.66 ± 103.97 mm^3	80.42%	447.12 ± 47.84 mm^3	extremely high	–	–
O=C(O)CC[C@H](NC(=O)N[C@@H](CCCCNC(=O)[C@H](Cc1ccc2ccccc2c1)NC(=O)C1CCC(NC(=O)CN2CCN(CC(=O)O)CCN(CC(=O)O)CCN(CC(=O)O)CC2)CC1)C(=O)O)C(=O)O (stereo partly shown) [Compound E26]	–	9.44	–	–	–	–	–	excellent cell binding ability	better lipophilicity
